18 molecules from patent US20240316038A1, “APOL1 INHIBITORS AND METHODS OF USE” (Maze Therapeutics, Inc., priority 2021, published 2024) can be followed below.

Usually AC50 stands for the midpoint of the concentration-response curve, whichever way the signal moves. What is called EC50 is the midpoint of the concentration-response curve.

Where only a bound is given, the exact number is not on record here.

For assay [1], the target named is T1, APOL1 G2 (Homo sapiens, UniProt O14791, DEL388-389).
T1 construct: expressed in transfected cells; host or cells: HEK293 T-REx clonal lines: HEK T-REx/GCaMP6f/APOL1 G2 K6.3 in A1, HEK293/T-REx APOL1 G2/clone #2 in A2
T1 sequence (O14791 with tags, fused parts or gaps DEL388-389): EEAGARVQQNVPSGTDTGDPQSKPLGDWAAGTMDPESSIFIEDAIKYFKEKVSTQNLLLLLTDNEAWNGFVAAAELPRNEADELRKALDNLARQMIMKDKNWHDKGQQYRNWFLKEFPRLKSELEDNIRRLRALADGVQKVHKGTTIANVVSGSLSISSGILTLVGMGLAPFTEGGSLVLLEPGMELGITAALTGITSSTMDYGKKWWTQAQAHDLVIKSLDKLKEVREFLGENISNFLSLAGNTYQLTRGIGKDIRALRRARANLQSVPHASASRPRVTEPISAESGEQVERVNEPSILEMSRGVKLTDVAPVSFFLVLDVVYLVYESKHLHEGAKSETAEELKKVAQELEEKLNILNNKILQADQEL
As to the kind of experiment: APOL1 calcium transport inhibition assay (GCaMP6f calcium influx, FLIPR) in HEK T-REx/GCaMP6f/APOL1 G2 K6.3 cells. Type of assay: cell-based. Particulars: inhibition of APOL1-mediated calcium influx; geometric mean of at least 2 assay runs, † = single assay run (technical duplicate). The method in brief: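 HEK293 cells stably expressing GCaMP6f, APOL1 G2 induced 6 h with doxycycline (20 ng/mL added), then washed into Ca2+-free Tyrode's buffer pH 7.4. Compounds (8-point dose response) preincubated 10 min at room temperature, then Ca2+ injected to 5 mM final and influx read on FLIPR. AC50 reported as geometric mean of runs.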

Assay [2] has as its target T1, APOL1 G2. Briefly: Rescue of HEK293 cell death caused by overexpression of APOL1 (CellTiter-Glo luminescence), HEK293/T-REx APOL1 G2/clone #2. The class given is cell-based. Particulars: reversal of cell death caused by overexpression of APOL1; geometric mean of at least 2 assay runs, † = single assay run (technical duplicate). The method in brief:
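HEK293/T-REx APOL1 G2 clone #2 cells, 5,000/well, induced with 6 ng/mL doxycycline and exposed to compound (8-point, 3-fold dilutions, 0.5% DMSO) for 17 h at 37 °C. Viability by CellTiter-Glo luminescence; EC50 for reversal of APOL1-induced death from a four-parameter logistic fit, geometric mean of ≥2 runs.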
Background: Cellular ATP, detected with luciferase, serves as a proxy for viable cell number.

On to `C[C@@H]1CN(CC(O)c2cc(C#N)cc(C#N)c2)C[C@H]1COc1ccc(S(C)(=O)=O)cc1` (single isomer, unassigned) [Compound 130, 5-[(1R or 1S)-1-hydroxy-2-[(3S,4S)-3-[(4-methanesulfonylphenoxy)methyl]-4-methylpyrrolidin-1-yl]ethyl]benzene-1,3-dicarbonitrile], for which, on APOL1 G2 [1], the AC50 was 2170 nM. The EC50 at APOL1 G2 [2] was > 10000 nM.

Consider `C[C@@H]1CN(CC(O)c2cc(C#N)cc(C#N)c2)C[C@H]1COc1ccc(S(C)(=O)=O)cc1` (single isomer, unassigned) [Compound 131, 5-[(1S or 1R)-1-hydroxy-2-[(35,4S)-3-[(4-methanesulfonylphenoxy)methyl]-4-methylpyrrolidin-1-yl]ethyl]benzene-1,3-dicarbonitrile], for which the AC50 at APOL1 G2 [1] is 394 nM. Moreover, on APOL1 G2 [2], the EC50 came out at 460 nM.

On to `CC1CC(COc2ccc(S(C)(=O)=O)cc2)CN1CCc1cccc(C#N)c1` (single isomer, unassigned) [Compound 135, rac-cis or trans-3-{2-[4-[(4-methanesulfon-ylphenoxy)meth-yl]-2-methyl-pyrrolidin-1-yl]-ethyl}benzo-nitrile], for which the AC50 on APOL1 G2 [1] was > 12500 nM. In addition, the EC50 on APOL1 G2 [2] was 5730 nM.

As to `CC1CC(COc2ccc(S(C)(=O)=O)cc2)CN1CCc1cccc(C#N)c1` (single isomer, unassigned) [Compound 136, rac-trans or cis-3-{2-[4-[(4-methanesulfon-ylphenoxy)meth-yl]-2-methyl-pyrrolidin-1-yl]-ethyl}benzo-nitrile], the AC50 on APOL1 G2 [1] turned out to be 207 nM. The EC50 at APOL1 G2 [2] is 110 nM.

In the case of `CC1CC(COc2ccc(S(C)(=O)=O)cc2)CN1CCc1cccc(C#N)c1` (single isomer, unassigned) [Compound 137, 3-{2-[(2S,4R or 2R,4S or 2R,4R or 2S,4S)-4-[(4-methanesulfon-ylphenoxy)meth-yl]-2-methyl-pyrrolidin-1-yl]-ethyl}benzo-nitrile], the AC50 at APOL1 G2 [1] was > 10000 nM. Moreover, the EC50 on APOL1 G2 [2] was 4620 nM.

With `CC1CC(COc2ccc(S(C)(=O)=O)cc2)CN1CCc1cccc(C#N)c1` (single isomer, unassigned) [Compound 138, 3-{2-[(2R,4S or 2S,4R or 2R,4R or 2S,4S)-4-[(4-methanesulfon-ylphenoxy)meth-yl]-2-methyl-pyrrolidin-1-yl]-ethyl}benzo-nitrile], at APOL1 G2 [1], the AC50 came out at 2500 nM. Moreover, at APOL1 G2 [2], the EC50 is 1970 nM.

Regarding `CC1CC(COc2ccc(S(C)(=O)=O)cc2)CN1CCc1cccc(C#N)c1` (single isomer, unassigned) [Compound 139, 3-{2-[(2S,4R or 2R,4S or 2S,4S or 2R,4R)-4-[(4-methanesulfon-ylphenoxy)meth-yl]-2-methyl-pyrrolidin-1-yl]-ethyl}benzo-nitrile], the AC50 on APOL1 G2 [1] is > 10000 nM. Besides, the EC50 on APOL1 G2 [2] was 3230 nM.

Regarding `CC1CC(COc2ccc(S(C)(=O)=O)cc2)CN1CCc1cccc(C#N)c1` (single isomer, unassigned) [Compound 140, 3-{2-[(2S,4R or 2R,4S or 2R,4R or 2S,4S)-4-[(4-methanesulfon-ylphenoxy)meth-yl]-2-methyl-pyrrolidin-1-yl]-ethyl}benzo-nitrile], on APOL1 G2 [1], the AC50 was 107 nM. The 50% effective concentration (EC50) at APOL1 G2 [2] was determined as 45.9 nM.

In the case of `CC(CN1C[C@@H](COc2ccc(S(C)(=O)=O)cc2)C[C@H]1C)c1cc(Cl)cc(C#N)c1` (single isomer, unassigned) [Compound 142, 3-chloro-5-[(2R or 2S)-1-[(2R, 4S)-4-[(4-meth-anesulfonyl-phenoxy)meth-yl]-2-methyl-pyrrolidin-1-yl]-propan-2-yl]-benzonitrile], the AC50 on APOL1 G2 [1] is 1230 nM. Besides, the EC50 at APOL1 G2 [2] was found to be 131 nM.

As to `CC(CN1C[C@@H](COc2ccc(S(C)(=O)=O)cc2)C[C@H]1C)c1cc(Cl)cc(C#N)c1` (single isomer, unassigned) [Compound 143, 3-chloro-5-[(2S or 2R)-1-[(2R, 4S)-4-[(4-meth-anesulfonyl-phenoxy)meth-yl]-2-methyl-pyrrolidin-1-yl]-propan-2-yl]-benzonitrile], the AC50 on APOL1 G2 [1] worked out at 3160 nM. In addition, at APOL1 G2 [2], the concentration for a half-maximal effect (EC50) stood at 349 nM.

Regarding `CC(CN1C[C@@H](COc2ccc(S(C)(=O)=O)cc2)[C@H](C)C1)c1cc(Cl)cc(C#N)c1` (single isomer, unassigned) [Compound 147, 3-chloro-5-[(2R or 2S)-1-[(3S, 4S)-3-[(4-meth-anesulfonylphen-oxy)methyl]-4-methylpyrroli-din-1-yl]propan-2-yl]benzonitrile], the AC50 on APOL1 G2 [1] turned out to be 1110 nM. In addition, on APOL1 G2 [2], the EC50 came out at 618 nM.

Take `CC(CN1C[C@@H](COc2ccc(S(C)(=O)=O)cc2)[C@H](C)C1)c1cc(Cl)cc(C#N)c1` (single isomer, unassigned) [Compound 148, 3-chloro-5-[(2S or 2R)-1-[(3S, 4S)-3-[(4-meth-anesulfonylphen-oxy)methyl]-4-methylpyrroli-din-1-yl]propan-2-yl]benzonitrile]: the AC50 at APOL1 G2 [1] amounted to 615 nM. The EC50 at APOL1 G2 [2] turned out to be 80.8 nM.

Regarding `C[C@@H]1CN(CCc2cccc(Cl)c2)C[C@@H]1COc1ccc(S(C)(=O)=O)cc1` (single isomer, unassigned) [Compound 151, (3R,4S or 3S, 4R)-1-[2-(3-chlorophenyl)-ethyl]-3-[(4-methanesulfon-ylphenoxy)meth-yl]-4-methyl-pyrrolidine], on APOL1 G2 [1], the AC50 was determined as 310 nM. Besides, the EC50 on APOL1 G2 [2] is 1340 nM.

Turning to `C[C@H]1CN(CCc2cccc(Cl)c2)C[C@H]1COc1ccc(S(C)(=O)=O)cc1` (single isomer, unassigned) [Compound 152, (3S,4R or 3R, 4S)-1-[2-(3-chlorophenyl)-ethyl]-3-[(4-methanesulfon-ylphenoxy)meth-yl]-4-methyl-pyrrolidine], the AC50 at APOL1 G2 [1] was 1990 nM. Moreover, the EC50 on APOL1 G2 [2] came out at 4720 nM.

Regarding `C[C@H]1CN(CCc2cccc(Cl)c2)C[C@@H]1COc1ccc(S(C)(=O)=O)cc1` (single isomer, unassigned) [Compound 154, (3R,4R or 3S, 4S)-1-[2-(3-chlorophenyl)-ethyl]-3-[(4-methanesulfon-ylphenoxy)meth-yl]-4-methyl-pyrrolidine], the AC50 at APOL1 G2 [1] was found to be 98 nM. The EC50 on APOL1 G2 [2] stood at 167 nM.

As for `C[C@@H]1CN(CCc2cccc(Cl)c2)C[C@H]1COc1ccc(S(C)(=O)=O)cc1` (single isomer, unassigned) [Compound 155, (35,4S or 3R, 4R)-1-[2-(3-chlorophenyl)-ethyl]-3-[(4-methanesulfon-ylphenoxy)meth-yl]-4-methyl-pyrrolidine], the AC50 on APOL1 G2 [1] turned out to be 1980 nM. Also, on APOL1 G2 [2], the EC50 worked out at 2490 nM.

In the case of `CN=S(C)(=O)c1ccc(OC[C@H]2C[C@@H](C)N(CCc3cccc(C#N)c3)C2)cc1` (single isomer, unassigned) [Compound 158, 3-{2-[(2R,4S)-2-methyl-4-({4-[(R or S)methyl(methyli-mino)oxo-λ^6-sulfanyl]phenoxy}methyl)pyrrolidin-1-yl]ethyl}benzonitrile], the half-maximal activity concentration (AC50) on APOL1 G2 [1] worked out at 352 nM. For the same molecule, the EC50 at APOL1 G2 [2] stood at 39 nM.

For the molecule `CN=S(C)(=O)c1ccc(OC[C@H]2C[C@@H](C)N(CCc3cccc(C#N)c3)C2)cc1` (single isomer, unassigned) [Compound 159, 3-{2-[(2R,4S)-2-methyl-4-({4-[(S or R)methyl(methyli-mino)oxo-λ^6-sulfanyl]phenoxy}methyl)pyrrolidin-1-yl]ethyl}benzonitrile], the AC50 on APOL1 G2 [1] was 358 nM. At APOL1 G2 [2], the EC50 was 24.9 nM.
